Test results as given in patent US7563793B2, “Pyrrolo[1,2-a]quinoxalin-5-(4H)-yl)sulfonyls and carbonyls and their use as estrogenic agents” (Wyeth, priority 2004, dated 2009).
Where two headings read alike, the source gives them in different places.

How the values were obtained:
[1] = test system: IL-6; experiment: IL-6 assay (ELISA) in Ad5-wt-ER infected HAECT-1 cells (IL-1β induced); type: cell-based, human; conditions: Homo sapiens; for IC50: HAECT1; for Emax: HAECT1, relative to maximal inhibition observed with E2, read-out: IL-6 Efficacy
Protocol: (§1) After four hours, cells were washed with EBM-BSA and incubated overnight in the same medium. […] After two hours, cells were washed and incubated at 34° C. for 1 hour. […] Control (no ER infection) cells were processed as above without Ad5-wt-hERα virus infection. […] Cells were subsequently washed with 300 μl of Dulbecco's phosphate buffered saline and lysed in 50 μl of Cell Culture Lysis Reagent (Promega). Luciferase was determined on a Wallac Victor^2 Luminometer (Gaithersburg, Md.) using 10 μl of lysate and mixing with 100 lμof Promega Luciferase Assay reagent. […] For IC50 and EC50 calculations, mean IL-6, luciferase or CK values versus log10 of the compound concentration were fitted to a four parameter logistic equation. The IC50/EC50 value, ‘Hill slope’, upper and lower limits of the curve were iteratively estimated.

[2] = test system: ER/Nf-kB; experiment: ER/NF-κB luciferase reporter assay in Ad5-wt-ER infected HAECT-1 cells (IL-1β induced); type: cell-based, human; conditions: for ER/Nf-kB Efficacy: relative to maximal inhibition observed with E2
Protocol: as §1

[3] = test system: creatine kinase; experiment: Creatine kinase assay in Ad5-wt-ER infected HAECT-1 cells; type: cell-based, human; conditions: for CK Efficacy: relative to maximal stimulation observed with E2
Protocol: as §1

SMILES: CC[C@H]1c2cccn2-c2cc(F)c(F)cc2N1S(=O)(=O)c1ccc(O)c(C)c1 [102 (S), 4-{[(4S)-4-ethyl-7,8-difluoropyrrolo[1,2-a]quinoxalin-5(4H)-yl]sulfonyl}-2-methylphenol]
- melting point: 161 to 163 °C
- IC50 [1]: 8.4 nM
- Emax [1]: 161%

SMILES: CC[C@@H]1c2cccn2-c2ccc(Cl)cc2N1C(=O)c1ccc(O)cc1O [125 (R), 4-{[(4R)-7-chloro-4-ethylpyrrolo[1,2-a]quinoxalin-5(4H)-yl]carbonyl}benzene-1,3-diol]
- melting point: 213 to 214 °C
- IC50 [1]: 0.4 nM
- Emax [1]: 120%

SMILES: CCC1c2cccn2-c2cc(F)c(F)cc2N1S(=O)(=O)c1ccc(O)c(C)c1 (centres unmarked) [Example 5, 4-[(4-ethyl-7,8-difluoropyrrolo[1,2-a]quinoxalin-5-(4H)-yl)sulfonyl]-2-methylphenol]
- IC50 [2]: 82 nM
- ER/Nf-kB Efficacy [2]: 99%
- CK Efficacy [3]: 37%

SMILES: CCC1c2cccn2-c2cc(F)c(F)cc2N1S(=O)(=O)c1ccc(O)cc1 (centres unmarked) [Example 7, 4-[(4-ethyl-7,8-difluoropyrrolo[1,2-a]quinoxalin-5-(4H)-yl)sulfonyl]phenol]
- IC50 [2]: 26 nM
- ER/Nf-kB Efficacy [2]: 113%
- CK Efficacy [3]: 37%

SMILES: CC1c2cccn2-c2cc(F)c(F)cc2N1S(=O)(=O)c1ccc(O)cc1 (centres unmarked) [Example 10, 4-[(7,8-difluoro-4-methylpyrrolo[1,2-a]quinoxalin-5-(4H)-yl)sulfonyl]phenol]
- IC50 [2]: 14 nM
- ER/Nf-kB Efficacy [2]: 97%
- CK Efficacy [3]: 39%

SMILES: CCC1c2cccn2-c2ccc(F)cc2N1S(=O)(=O)c1ccc(O)c(C)c1 (centres unmarked) [Example 19, 4-[(4-ethyl-7-fluoropyrrolo[1,2-a]quinoxalin-5-(4H)-yl)sulfonyl]-2-methylphenol]
- IC50 [2]: 34 nM
- ER/Nf-kB Efficacy [2]: 94%
- CK Efficacy [3]: 52%

SMILES: CCC1c2cccn2-c2ccc(F)cc2N1S(=O)(=O)c1ccc(O)cc1 (centres unmarked) [Example 21, 4-[(4-ethyl-7-fluoropyrrolo[1,2-a]quinoxalin-5-(4H)-yl)sulfonyl]phenol]
- IC50 [2]: 71 nM
- ER/Nf-kB Efficacy [2]: 97%
- CK Efficacy [3]: 38%

SMILES: CCC1c2ccc(C=O)n2-c2ccc(F)cc2N1S(=O)(=O)c1ccc(O)c(C)c1 (centres unmarked) [Example 25, 4-ethyl-7-fluoro-5-[(4-hydroxy-3-methylphenyl)sulfonyl]-4,5-dihydropyrrolo[1,2-a]quinoxaline-1-carboxaldehyde]
- melting point: 192 to 194 °C

SMILES: CCC1c2ccc(F)n2-c2ccc(F)cc2N1S(=O)(=O)c1ccc(O)c(C)c1 (centres unmarked) [Example 28, 4-[(4-ethyl-1,7-difluoropyrrolo[1,2-a]quinoxalin-5-(4H)-yl)sulfonyl]-2-methylphenol]
- IC50 [2]: 52 nM
- ER/Nf-kB Efficacy [2]: 105%
- CK Efficacy [3]: 45%

SMILES: CCC1c2ccc(Br)n2-c2ccc(F)cc2N1S(=O)(=O)c1ccc(O)c(C)c1 (centres unmarked) [Example 29, 4-[(1-bromo-4-ethyl-7-fluoropyrrolo[1,2-a]quinoxalin-5-(4H)-yl)sulfonyl]-2-methylphenol]
- IC50 [2]: 587 nM
- ER/Nf-kB Efficacy [2]: 100%
- CK Efficacy [3]: 28%

SMILES: CCC1c2ccc(C(N)=O)n2-c2ccc(F)cc2N1S(=O)(=O)c1ccc(O)cc1 (centres unmarked) [Example 36, 4-ethyl-7-fluoro-5-[(4-hydroxyphenyl)sulfonyl]-4,5-dihydropyrrolo[1,2-a]quinoxaline-1-carboxamide]
- melting point: 168 to 170 °C (dec.)

SMILES: CCC1c2cccn2-c2ccc(F)cc2N1S(=O)(=O)c1cc(C)c(O)c(C)c1 (centres unmarked) [Example 38, 4-[(4-ethyl-7-fluoropyrrolo[1,2-a]quinoxalin-5-(4H)-yl)sulfonyl]-2,6-dimethylphenol]
- IC50 [2]: 201 nM
- ER/Nf-kB Efficacy [2]: 109%
- CK Efficacy [3]: 38%

SMILES: CC1(C)c2cccn2-c2ccc(Br)cc2N1S(=O)(=O)c1ccc(O)cc1 [Example 41, 4-[(7-bromo-4,4-dimethylpyrrolo[1,2-a]quinoxalin-5-(4H)-yl)sulfonyl]phenol]
- IC50 [2]: 217 nM
- ER/Nf-kB Efficacy [2]: 109%
- CK Efficacy [3]: 35%

SMILES: CCC1c2cccn2-c2ccc(Br)cc2N1S(=O)(=O)c1ccc(O)cc1 (centres unmarked) [Example 44, 4-[(7-bromo-4-ethylpyrrolo[1,2-a]quinoxalin-5-(4H)-yl)sulfonyl]phenol]
- IC50 [2]: 42 nM
- ER/Nf-kB Efficacy [2]: 97%
- CK Efficacy [3]: 51%

SMILES: CCC1c2ccc(F)n2-c2ccc(Br)cc2N1S(=O)(=O)c1ccc(O)cc1 (centres unmarked) [Example 45, 4-[(7-bromo-4-ethyl-1-fluoropyrrolo[1,2-a]quinoxalin-5-(4H)-yl)sulfonyl]phenol]
- IC50 [2]: 12 nM
- ER/Nf-kB Efficacy [2]: 95%
- CK Efficacy [3]: 53%

SMILES: CCC1c2cccn2-c2ccc(Br)cc2N1S(=O)(=O)c1ccc(O)c(C)c1 (centres unmarked) [Example 46, 4-[(7-bromo-4-ethylpyrrolo[1,2-a]quinoxalin-5-(4H)-yl)sulfonyl]-2-methylphenol]
- IC50 [2]: 62 nM
- ER/Nf-kB Efficacy [2]: 108%
- CK Efficacy [3]: 43%

SMILES: CC1c2cccn2-c2ccc(F)cc2N1S(=O)(=O)c1ccc(O)cc1 (centres unmarked) [Example 49, 4-[(7-fluoro-4-methylpyrrolo[1,2-a]quinoxalin-5-(4H)-yl)sulfonyl]phenol]
- IC50 [2]: 67 nM
- ER/Nf-kB Efficacy [2]: 85%
- CK Efficacy [3]: 19%

SMILES: CCC1c2cccn2-c2ccc(C(F)(F)F)cc2N1S(=O)(=O)c1ccc(O)c(C)c1 (centres unmarked) [Example 58, 4-{[4-ethyl-7-(trifluoromethyl)pyrrolo[1,2-a]quinoxalin-5-(4H)-yl]sulfonyl}-2-methylphenol]
- IC50 [2]: 85 nM
- ER/Nf-kB Efficacy [2]: 132%
- CK Efficacy [3]: 42%

SMILES: CCC1c2cccn2-c2ccc(C(F)(F)F)cc2N1S(=O)(=O)c1ccc(O)c(Cl)c1 (centres unmarked) [Example 61, 2-chloro-4-{[4-ethyl-7-(trifluoromethyl)pyrrolo[1,2-a]quinoxalin-5-(4H)-yl]sulfonyl}phenol]
- IC50 [2]: 10000 nM
- ER/Nf-kB Efficacy [2]: 69%
- CK Efficacy [3]: 15%

SMILES: CCC1c2cccn2-c2ccccc2N1S(=O)(=O)c1ccc(O)c(C)c1 (centres unmarked) [Example 64, 4-[(4-ethylpyrrolo[1,2-a]quinoxalin-5-(4H)-yl)sulfonyl]-2-methylphenol]
- IC50 [2]: 202 nM
- ER/Nf-kB Efficacy [2]: 89%

SMILES: CCOC(=O)Oc1ccc(S(=O)(=O)N2c3c(C)cccc3-n3cccc3C2CC)cc1 (centres unmarked) [Example 66, ethyl 4-[(4-ethyl-6-methylpyrrolo[1,2-a]quinoxalin-5-(4H)-yl)sulfonyl]phenyl carbonate]
- IC50 [2]: 320 nM
- ER/Nf-kB Efficacy [2]: 98%

SMILES: CCC1c2cccn2-c2ccc(Cl)cc2N1S(=O)(=O)c1ccc(O)c(C)c1 (centres unmarked) [Example 68A, 4-[(7-chloro-4-ethylpyrrolo[1,2-a]quinoxalin-5-(4H)-yl)sulfonyl]-2-methylphenol]
- IC50 [2]: 93 nM
- ER/Nf-kB Efficacy [2]: 105%
- CK Efficacy [3]: 49%

SMILES: CCOC(=O)Oc1ccc(S(=O)(=O)N2c3ccc(Cl)cc3-n3cccc3C2CC)cc1 (centres unmarked) [Example 70, 4-[(8-chloro-4-ethylpyrrolo[1,2-a]quinoxalin-5-(4H)-yl)sulfonyl]phenyl ethyl carbonate]
- IC50 [2]: 150 nM
- ER/Nf-kB Efficacy [2]: 98%
- CK Efficacy [3]: 45%

SMILES: CCC1c2cccn2-c2cc(Cl)ccc2N1S(=O)(=O)c1ccc(O)cc1 (centres unmarked) [Example 71, 4-[(8-chloro-4-ethylpyrrolo[1,2-a]quinoxalin-5-(4H)-yl)sulfonyl]phenol]
- IC50 [2]: 175 nM
- ER/Nf-kB Efficacy [2]: 101%
- CK Efficacy [3]: 34%

SMILES: CCC1c2cccn2-c2cc(OC)c(F)cc2N1S(=O)(=O)c1ccc(O)cc1 (centres unmarked) [Example 75, 4-[(4-ethyl-7-fluoro-8-methoxypyrrolo[1,2-a]quinoxalin-5-(4H)-yl)sulfonyl]phenol]
- IC50 [2]: 36 nM
- ER/Nf-kB Efficacy [2]: 84%
- CK Efficacy [3]: 46%

SMILES: CC[C@@H]1c2cccn2-c2ccc(Br)cc2N1S(=O)(=O)c1ccc(O)cc1 [Example 78, 4-{[(4R)-7-bromo-4-ethylpyrrolo[1,2-a]quinoxalin-5(4H)-yl]sulfonyl}phenol]
- melting point: 187 to 189 °C
- IC50 [1]: 1100 nM
- Emax [1]: 40%

SMILES: CC[C@@H]1c2ccc(C#N)n2-c2cc(F)c(F)cc2N1S(=O)(=O)c1ccc(O)cc1 [Example 101 (R), (4R)-4-ethyl-7,8-difluoro-5-[(4-hydroxyphenyl)sulfonyl]-4,5-dihydropyrrolo[1,2-a]quinoxaline-1-carbonitrile]
- melting point: 194 to 195 °C

SMILES: CCC1c2cccn2-c2ccc(F)cc2N1C(=O)c1ccc(O)cc1O (centres unmarked) [Example 120, 4-[(4-ethyl-7-fluoropyrrolo[1,2-a]quinoxalin-5(4H)-yl)carbonyl]benzene-1,3-diol]
- melting point: 153 to 155 °C

SMILES: CCC1c2cccn2-c2ccc(Cl)cc2N1C(=O)c1ccc(O)cc1O (centres unmarked) [Example 124, 4-[(7-chloro-4-ethylpyrrolo[1,2-a]quinoxalin-5(4H)-yl)carbonyl]benzene-1,3-diol]
- melting point: 198 to 201 °C

SMILES: CCC1c2cccn2-c2ccc(F)cc2N1C(=O)c1cccc(O)c1 (centres unmarked) [Example 126, 3-[(4-ethyl-7-fluoropyrrolo[1,2-a]quinoxalin-5(4H)-yl)carbonyl]phenol]
- melting point: 115 to 117 °C

SMILES: C[C@]12CC[C@@H]3c4ccc(O)cc4CC[C@H]3[C@@H]1CC[C@@H]2O [Example E2, 17β-estradiol, reference compound]
- IC50 ([2]; Homo sapiens, HAECT1): 1.7 nM
- ER/Nf-kB Efficacy [2]: 100%
- EC50 ([3]; Homo sapiens, HAECT1, CK stimulation, N/O = activity not observed at concentrations tested, read-out: CK IC50): 5.8 nM
- Emax ([3]; Homo sapiens, HAECT1, relative to maximal stimulation observed with E2, read-out: CK Efficacy): 100%
